Laboratory results published in ChEMBL document CHEMBL4014291, “Tripodal squaramide conjugates as highly effective transmembrane anion transporters” (Bioorg Med Chem Lett, 2017).
Calls of active or inactive are those of the source. No cut-off for these calls is given here.

Columns and labels:
[1] = Binding affinity to tetrabutylammonium chloride anion after 2 mins by spectrophotometric method
[2] = Ionophoric activity across egg yolk L-alpha-phosphatidylcholine-based large unilamellar vesicles loaded with NaCl assessed as release of chloride ion after 300 seconds in presence of NaNO3 loaded external vesicles by electrode technique
[3] = Ionophoric activity across pyranine dye encapsulated pH 7 egg yolk L-alpha-phosphatidylcholine-based large unilamellar vesicles assessed as bromide ion transport by measuring induction of pH discharge in presence of NaBr loaded external vesicles by fluorescence method
[4] = (§1) Ionophoric activity across pyranine dye encapsulated pH 7 egg yolk L-alpha-phosphatidylcholine-based large unilamellar vesicles assessed as nitrate ion transport by measuring initial rate constant for induction of pH discharge at 0.03125 mol% in presence of NaNO3 loaded external vesicles by fluorescence method (reference value: 2.24 +/- 0.52 10^-2/min)
[5] = Ionophoric activity across egg yolk L-alpha-phosphatidylcholine-based large unilamellar vesicles loaded with NaCl assessed as chloride transportat 1 mol% after 300 seconds in presence of NaSO4 loaded external vesicles by electrode technique
[6] = as §1, with “iodide” for “nitrate”, “0.0313” for “0.03125”, “NaI” for “NaNO3”, “3.52” for “2.24”, “0.22” for “0.52”
[7] = as §1, with “0.0625” for “0.03125”
[8] = Ionophoric activity across pyranine dye encapsulated pH 7 egg yolk L-alpha-phosphatidylcholine-based large unilamellar vesicles assessed as chloride ion transport by measuring induction of pH discharge in presence of NaCl loaded external vesicles by fluorescence method
[9] = Ionophoric activity across egg yolk L-alpha-phosphatidylcholine-based large unilamellar vesicles loaded with LiCl assessed as chloride ion efflux at 1 mol% after 300 seconds in presence of NaNO3 loaded external vesicles by electrode technique
[10] = Binding affinity to tetrabutylammonium sulphate anion by 1H NMR spectrophotometric method
[11] = as §1, with “chloride” for “nitrate”, “0.25” for “0.03125”, “NaCl” for “NaNO3”, “0.81” for “2.24”, “0.22” for “0.52”
[12] = as §1, with “iodide” for “nitrate”, “0.0039” for “0.03125”, “NaI” for “NaNO3”, “3.52” for “2.24”, “0.22” for “0.52”
[13] = Ionophoric activity across pyranine dye encapsulated pH 7 egg yolk L-alpha-phosphatidylcholine-based large unilamellar vesicles assessed as nitrate ion transport by measuring induction of pH discharge in presence of NaNO3 loaded external vesicles by fluorescence method
[14] = as §1, with “chloride” for “nitrate”, “0.0078” for “0.03125”, “NaCl” for “NaNO3”, “0.81” for “2.24”, “0.22” for “0.52”
[15] = Ionophoric activity across pyranine dye encapsulated pH 7 egg yolk L-alpha-phosphatidylcholine-based large unilamellar vesicles assessed as sulfate ion transport by measuring induction of pH discharge up to 3 mol% in presence of Na2SO4 loaded external vesicles by fluorescence method
[16] = Ionophoric activity across egg yolk L-alpha-phosphatidylcholine-based large unilamellar vesicles loaded with CsCl assessed as chloride ion efflux at 1 mol% after 300 seconds in presence of NaNO3 loaded external vesicles by electrode technique
[17] = as §1, with “0.125” for “0.03125”
[18] = Ionophoric activity across pyranine dye encapsulated pH 7 egg yolk L-alpha-phosphatidylcholine-based large unilamellar vesicles assessed as iodide ion transport by measuring induction of pH discharge in presence of NaI loaded external vesicles by fluorescence method
[19] = as §1, with “0.00781” for “0.03125”
[20] = as §1, with “bromide” for “nitrate”, “0.125” for “0.03125”, “NaBr” for “NaNO3”, “2.08” for “2.24”, “0.19” for “0.52”
[21] = Binding affinity to tetramethylammonium sulfate anion after 2 mins by spectrophotometric method
[22] = as §1, with “iodide” for “nitrate”, “0.0156” for “0.03125”, “NaI” for “NaNO3”, “3.52” for “2.24”, “0.22” for “0.52”
[23] = Ionophoric activity across egg yolk L-alpha-phosphatidylcholine-based large unilamellar vesicles loaded with KCl assessed as chloride ion efflux at 1 mol% after 300 seconds in presence of NaNO3 loaded external vesicles by electrode technique
[24] = as §1, with “iodide” for “nitrate”, “0.0625” for “0.03125”, “NaI” for “NaNO3”, “3.52” for “2.24”, “0.22” for “0.52”
[25] = as §1, with “bromide” for “nitrate”, “0.0625” for “0.03125”, “NaBr” for “NaNO3”, “2.08” for “2.24”, “0.19” for “0.52”
[26] = as §1, with “chloride” for “nitrate”, “0.0313” for “0.03125”, “NaCl” for “NaNO3”, “0.81” for “2.24”, “0.22” for “0.52”
[27] = as §1, with “bromide” for “nitrate”, “0.0313” for “0.03125”, “NaBr” for “NaNO3”, “2.08” for “2.24”, “0.19” for “0.52”
[28] = as §1, with “iodide” for “nitrate”, “0.0078” for “0.03125”, “NaI” for “NaNO3”, “3.52” for “2.24”, “0.22” for “0.52”
[29] = as §1, with “bromide” for “nitrate”, “0.0156” for “0.03125”, “NaBr” for “NaNO3”, “2.08” for “2.24”, “0.19” for “0.52”
[30] = as §1, with “chloride” for “nitrate”, “0.125” for “0.03125”, “NaCl” for “NaNO3”, “0.81” for “2.24”, “0.22” for “0.52”
[31] = as §1, with “0.01563” for “0.03125”
[32] = Ionophoric activity across egg yolk L-alpha-phosphatidylcholine-based large unilamellar vesicles loaded with RbCl assessed as chloride ion efflux at 1 mol% after 300 seconds in presence of NaNO3 loaded external vesicles by electrode technique
[33] = as §1, with “chloride” for “nitrate”, “0.0625” for “0.03125”, “NaCl” for “NaNO3”, “0.81” for “2.24”, “0.22” for “0.52”
[34] = as §1, with “bromide” for “nitrate”, “0.0078” for “0.03125”, “NaBr” for “NaNO3”, “2.08” for “2.24”, “0.19” for “0.52”
[35] = Binding affinity to tetrabutylammonium chloride anion by 1H NMR spectrophotometric method
[36] = Ionophoric activity across egg yolk L-alpha-phosphatidylcholine-based large unilamellar vesicles loaded with LiCl assessed as chloride ion efflux at 3 mol% after 300 seconds in presence of NaNO3 loaded external vesicles by electrode technique
[37] = as §1, with “0.25” for “0.03125”
[38] = as §1, with “chloride” for “nitrate”, “0.5” for “0.03125”, “NaCl” for “NaNO3”, “0.81” for “2.24”, “0.22” for “0.52”
[39] = Ionophoric activity across egg yolk L-alpha-phosphatidylcholine-based large unilamellar vesicles loaded with RbCl assessed as chloride ion efflux at 3 mol% after 300 seconds in presence of NaNO3 loaded external vesicles by electrode technique
[40] = as §1, with “chloride” for “nitrate”, “1” for “0.03125”, “NaCl” for “NaNO3”, “0.81” for “2.24”, “0.22” for “0.52”
[41] = Ionophoric activity across egg yolk L-alpha-phosphatidylcholine-based large unilamellar vesicles loaded with KCl assessed as chloride ion efflux at 3 mol% after 300 seconds in presence of NaNO3 loaded external vesicles by electrode technique
[42] = Ionophoric activity across egg yolk L-alpha-phosphatidylcholine-based large unilamellar vesicles loaded with CsCl assessed as chloride ion efflux at 3 mol% after 300 seconds in presence of NaNO3 loaded external vesicles by electrode technique
[43] = as §1, with “0.0313” for “0.03125”
[44] = as §1, with “bromide” for “nitrate”, “0.25” for “0.03125”, “NaBr” for “NaNO3”, “2.08” for “2.24”, “0.19” for “0.52”
[45] = Ionophoric activity across HPTS dye encapsulated pH 7 egg yolk L-alpha-phosphatidylcholine-based large unilamellar vesicles assessed as chloride ion transport by measuring induction of pH discharge in presence of NaCl loaded external vesicles by fluorescence method

Ka [1]	logKa [1]	Activity [2]	EC50 [3] [mol%]	Activity [5]	K [6] [×10⁻² /min]	K [7] [×10⁻² /min]	EC50 [8] [mol%]	K [11] [×10⁻² /min]	K [12] [×10⁻² /min]	EC50 [13] [mol%]	Activity [15]	K [17] [×10⁻² /min]	EC50 [18] [mol%]	K [20] [×10⁻² /min]	Ka [21] [×10⁵ /M]	logKa [21]	K [22] [×10⁻² /min]	K [24] [×10⁻² /min]	K [25] [×10⁻² /min]	SMILES	other results
7.03 ×10² /M	2.84	Dose-dependent effect	0.13	inactive	9.99	7.45	0.14	5.41	3.94	0.11	inactive	11.4	0.06	11	4.79	5.64	6.27	14.5	7.27	O=c1c(NCCN(CCNc2c(Nc3ccc(C(F)(F)F)cc3)c(=O)c2=O)CCNc2c(Nc3ccc(C(F)(F)F)cc3)c(=O)c2=O)c(Nc2ccc(C(F)(F)F)cc2)c1=O	K [4]: 4.91 ×10⁻² /min; Activity [9]: inactive; logKa [10]: 4.87; K [14]: 1.27 ×10⁻² /min; Activity [16]: inactive; K [19]: 2.53 ×10⁻² /min; Activity [23]: inactive; K [26]: 1.68 ×10⁻² /min; K [27]: 4.31 ×10⁻² /min; K [28]: 5.2 ×10⁻² /min; K [29]: 3.37 ×10⁻² /min; K [30]: 4.04 ×10⁻² /min; K [31]: 3.17 ×10⁻² /min; Activity [32]: inactive; K [33]: 2.69 ×10⁻² /min; K [34]: 2.59 ×10⁻² /min; logKa [35]: 2.65
2.94 ×10³ /M	3.47	Dose-dependent effect	0.49	inactive	7.67	4.52	0.75	3.87	3.7	0.23	inactive	6.9	0.05	6.24	> 1	> 5	5.92	10.6	3.85	O=c1c(NCCN(CCNc2c(Nc3cc(C(F)(F)F)cc(C(F)(F)F)c3)c(=O)c2=O)CCNc2c(Nc3cc(C(F)(F)F)cc(C(F)(F)F)c3)c(=O)c2=O)c(Nc2cc(C(F)(F)F)cc(C(F)(F)F)c2)c1=O	Activity [36]: inactive; K [37]: 10.2 ×10⁻² /min; K [38]: 6.63 ×10⁻² /min; Activity [39]: inactive; K [40]: 9.42 ×10⁻² /min; Activity [41]: inactive; Activity [42]: inactive; K [43]: 3.2 ×10⁻² /min; K [26]: 1.32 ×10⁻² /min; K [27]: 2.89 ×10⁻² /min; K [28]: 4.41 ×10⁻² /min; K [44]: 10.8 ×10⁻² /min; K [29]: 2.22 ×10⁻² /min; K [30]: 2.57 ×10⁻² /min; K [31]: 2.77 ×10⁻² /min
–	–	–	–	–	–	–	–	–	–	–	–	–	–	–	–	–	–	–	–	O=C(Nc1ccccc1)Nc1ccc(N2COc3c(c4c(c5c3CN(c3ccc(NC(=O)Nc6ccccc6)cc3)CO5)CN(c3ccc(NC(=O)Nc5ccccc5)cc3)CO4)C2)cc1	EC50 [45]: 0.49 mol%
